Experimental data reported in PubChem BioAssay AID328 (DTP/NCI, 2004).
Where “and” joins values, the source holds several entries; their conditions need not be identical. Equal entries are not always repeated. Inconclusive results and toxic doses are left out.

Test system: BDF1 mice, P388 leukemia ip, median survival T/C
Assay: NCI In Vivo Anticancer Drug Screen. Data for tumor model P388 Leukemia (intraperitoneal) in B6D2F1 (BDF1) mice
Details: endpoint: median survival time, higher = longer survival
Method in brief: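 Transplantable tumour in mice; compound vs vehicle dosing; survival scored; ratio of treated to control reported.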

[1] = dose: 400.0 mg/kg/injection, schedule: Q01DX009 (ip), vehicle: other
[2] = dose: 100.0 mg/kg/injection, schedule: Q01DX009 (ip), vehicle: Klucel (hydroxypropylcellulose) (HPC)
[3] = dose: 200.0 mg/kg/injection, schedule: Q01DX009 (ip), vehicle: Klucel (hydroxypropylcellulose) (HPC)
[4] = dose: 50.0 mg/kg/injection, schedule: Q04DX003 (ip), vehicle: saline with Tween-80
[5] = dose: 100.0 mg/kg/injection, schedule: Q01DX009 (ip), vehicle: saline with Tween-80
[6] = dose: 100.0 mg/kg/injection, schedule: Q04DX003 (ip), vehicle: saline with Tween-80
[7] = dose: 200.0 mg/kg/injection, schedule: Q01DX009 (ip), vehicle: saline with Tween-80
[8] = dose: 200.0 mg/kg/injection, schedule: Q04DX003 (ip), vehicle: saline with Tween-80
[9] = dose: 100.0 mg/kg/injection, schedule: Q01DX009 (ip), vehicle: saline
[10] = dose: 200.0 mg/kg/injection, schedule: Q01DX009 (ip), vehicle: saline

For `CCCCCCCCCCCCCCCCOc1ccccc1CNc1cc(C(F)(F)F)ccc1Cl`, the T/C (dose: 100.0 mg/kg/injection, schedule: Q01DX009 (ip), vehicle: other) was 90 % of control, the T/C (dose: 200.0 mg/kg/injection, schedule: Q01DX009 (ip), vehicle: other) was 100 % of control and the T/C [1] was 105 % of control.
`CC(O)(CCCCCCCC(C)(O)c1ccccc1)c1ccccc1` (configuration not stated) was tested, and the T/C (dose: 100.0 mg/kg/injection, schedule: Q01DX001 (ip), vehicle: saline with Tween-80) was 100 % of control, the T/C (dose: 200.0 mg/kg/injection, schedule: Q01DX001 (ip), vehicle: saline with Tween-80) was 100 % of control and the T/C (dose: 400.0 mg/kg/injection, schedule: Q01DX001 (ip), vehicle: saline with Tween-80) was 100 % of control.
For `Cc1cnccc1Br`, the T/C (dose: 12.5 mg/kg/injection, schedule: Q04DX003 (ip), vehicle: water) was 103 % of control, the T/C (dose: 25.0 mg/kg/injection, schedule: Q04DX003 (ip), vehicle: water) was 103 % of control and the T/C (dose: 50.0 mg/kg/injection, schedule: Q04DX003 (ip), vehicle: water) was 103 % of control. The T/C (dose: 100.0 mg/kg/injection, schedule: Q04DX003 (ip), vehicle: water) was 97 % of control and the T/C (dose: 200.0 mg/kg/injection, schedule: Q04DX003 (ip), vehicle: water) was 94 % of control.
`CN(Cc1ccccc1)/N=N/c1nc[nH]c1C(N)=O` was tested, and the T/C (dose: 25.0 mg/kg/injection, schedule: Q01DX009 (ip), vehicle: Klucel (hydroxypropylcellulose) (HPC)) was 95 % of control, the T/C (dose: 50.0 mg/kg/injection, schedule: Q01DX009 (ip), vehicle: Klucel (hydroxypropylcellulose) (HPC)) was 110 % of control and the T/C [2] was 110 % of control. The T/C [3] was 100 % of control.
For `CC(=O)OCCC/C(=C/c1cc2ccccc2c2ccccc12)[N+](=O)[O-]`, the T/C [2] was 115 % of control and the T/C [3] was 120 % of control.
In the case of `NC(=S)c1nn(C2OC(CO)C(O)C2O)c2ncnc(N)c12` (configuration not stated), the T/C (dose: 0.37 mg/kg/injection, schedule: Q01DX009 (ip), vehicle: saline) is reported as 111 % of control and the T/C (dose: 0.75 mg/kg/injection, schedule: Q01DX009 (ip), vehicle: saline) is reported as 116 % of control.
With `O=C1c2ccccc2C(=O)N1CCc1ccccn1` the T/C [4] was 100 % of control, the T/C [5] was 100 % of control and the T/C [6] was 95 % of control and 111 % of control. The T/C [7] was 95 % of control, the T/C [8] was 100 % of control and 111 % of control and the T/C (dose: 400.0 mg/kg/injection, schedule: Q04DX003 (ip), vehicle: saline with Tween-80) was 88 % of control.
`O=C(C[N+]12CN3CN(CN(C3)C1)C2)c1ccc(Cl)cc1` was tested, and the T/C (dose: 25.0 mg/kg/injection, schedule: Q04DX003 (ip), vehicle: saline) was 100 % of control, the T/C (dose: 44.0 mg/kg/injection, schedule: Q04DX003 (ip), vehicle: saline sonified) was 104 % of control and the T/C (dose: 50.0 mg/kg/injection, schedule: Q01DX009 (ip), vehicle: saline with Tween-80) was 107 % of control. The T/C (dose: 50.0 mg/kg/injection, schedule: Q04DX003 (ip), vehicle: saline) was 110 % of control, the T/C (dose: 66.0 mg/kg/injection, schedule: Q04DX003 (ip), vehicle: saline sonified) was 118 % of control and the T/C [5] was 119 % of control. For the same compound, the T/C [7] was 119 % of control.
`O=C(O)C1=NN(c2cc(Cl)c(S(=O)(=O)O)cc2Cl)C(=O)C1` was tested, and the T/C [2] was 100 % of control, the T/C [9] was 110 % of control and the T/C (dose: 100.0 mg/kg/injection, schedule: Q04DX003 (ip), vehicle: saline) was 95 % of control. For the same compound, the T/C (dose: 175.0 mg/kg/injection, schedule: Q01DX009 (ip), vehicle: other) was 100 % of control, the T/C [3] was 108 % of control and the T/C [10] was 120 % of control. For the same compound, the T/C (dose: 200.0 mg/kg/injection, schedule: Q04DX003 (ip), vehicle: saline) was 95 % of control, the T/C (dose: 265.0 mg/kg/injection, schedule: Q01DX009 (ip), vehicle: other) was 88 % of control and the T/C (dose: 400.0 mg/kg/injection, schedule: Q01DX009 (ip), vehicle: Klucel (hydroxypropylcellulose) (HPC)) was 104 % of control. The T/C [1] was 100 % of control, the T/C (dose: 400.0 mg/kg/injection, schedule: Q04DX003 (ip), vehicle: saline) was 118 % of control and the T/C (dose: 600.0 mg/kg/injection, schedule: Q01DX009 (ip), vehicle: other) was 88 % of control.
`Nc1ncn(C2CC(O)C(CO)O2)c(=O)n1` (configuration not stated) was tested, and the T/C (dose: 0.03 mg/kg/injection, schedule: Q01DX009 (ip), vehicle: saline) was 119 % of control, the T/C (dose: 0.05 mg/kg/injection, schedule: Q01DX009 (ip), vehicle: saline) was 121 % of control and the T/C (dose: 0.1 mg/kg/injection, schedule: Q01DX009 (ip), vehicle: Klucel (hydroxypropylcellulose) (HPC)) was 190 % of control. The T/C (dose: 0.2 mg/kg/injection, schedule: Q01DX009 (ip), vehicle: Klucel (hydroxypropylcellulose) (HPC)) was 160 % of control and 206 % of control, the T/C (dose: 0.4 mg/kg/injection, schedule: Q01DX009 (ip), vehicle: Klucel (hydroxypropylcellulose) (HPC)) was 175 % of control and 190 % of control and the T/C (dose: 0.4 mg/kg/injection, schedule: Q01DX009 (ip), vehicle: saline) was 150 % of control. The T/C (dose: 0.8 mg/kg/injection, schedule: Q01DX009 (ip), vehicle: Klucel (hydroxypropylcellulose) (HPC)) was 109 % of control and 212 % of control, the T/C (dose: 0.8 mg/kg/injection, schedule: Q01DX009 (ip), vehicle: saline) was 188 % of control and the T/C (dose: 1.56 mg/kg/injection, schedule: Q01DX009 (ip), vehicle: saline) was 106 % of control. The T/C (dose: 3.12 mg/kg/injection, schedule: Q01DX009 (ip), vehicle: saline) was 94 % of control, the T/C (dose: 3.12 mg/kg/injection, schedule: Q04DX003 (ip), vehicle: saline) was 235 % of control and the T/C (dose: 6.25 mg/kg/injection, schedule: Q01DX009 (ip), vehicle: saline) was 90 % of control. For the same compound, the T/C (dose: 6.25 mg/kg/injection, schedule: Q04DX003 (ip), vehicle: saline) was 265 % of control and the T/C (dose: 12.5 mg/kg/injection, schedule: Q04DX003 (ip), vehicle: saline) was 160 % of control.
`COc1cc([C@@H]2c3cc4c(cc3[C@@H](OC3OC5COC(C)OC5C(O)C3O)[C@H]3COC(=O)[C@H]23)OCO4)cc(OC)c1O` (some centres not stated) was tested, and the T/C (dose: 7.48 mg/kg/injection, schedule: Q04DX003 (ip), vehicle: other) was 225 % of control, the T/C (dose: 11.8 mg/kg/injection, schedule: Q04DX003 (ip), vehicle: Klucel (hydroxypropylcellulose) (HPC)) was 533 % of control and the T/C (dose: 11.8 mg/kg/injection, schedule: Q04DX003 (ip), vehicle: saline) was 170 % of control. The T/C (dose: 12.0 mg/kg/injection, schedule: Q04DX003 (ip), vehicle: saline) was 287 % of control, the T/C (dose: 12.5 mg/kg/injection, schedule: Q04DX003 (ip), vehicle: other) was 266 % of control and the T/C (dose: 17.8 mg/kg/injection, schedule: Q04DX003 (ip), vehicle: Klucel (hydroxypropylcellulose) (HPC)) was 535 % of control. For the same compound, the T/C (dose: 17.8 mg/kg/injection, schedule: Q04DX003 (ip), vehicle: saline) was 200 % of control, the T/C (dose: 18.0 mg/kg/injection, schedule: Q04DX003 (ip), vehicle: Klucel (hydroxypropylcellulose) (HPC)) was 476 % of control and the T/C (dose: 18.0 mg/kg/injection, schedule: Q04DX003 (ip), vehicle: saline) was 548 % of control. The T/C (dose: 22.08 mg/kg/injection, schedule: Q04DX003 (ip), vehicle: other) was 490 % of control, the T/C (dose: 27.0 mg/kg/injection, schedule: Q04DX003 (ip), vehicle: Klucel (hydroxypropylcellulose) (HPC)) was 535 % of control and the T/C (dose: 27.0 mg/kg/injection, schedule: Q04DX003 (ip), vehicle: saline) was 550 % of control and 222 % of control. For the same compound, the T/C (dose: 30.0 mg/kg/injection, schedule: Q04DX003 (ip), vehicle: Klucel (hydroxypropylcellulose) (HPC)) was 242 % of control, the T/C (dose: 34.6 mg/kg/injection, schedule: Q04DX003 (ip), vehicle: other) was 491 % of control and the T/C (dose: 40.0 mg/kg/injection, schedule: Q04DX003 (ip), vehicle: saline) was 550 % of control. The T/C (dose: 40.5 mg/kg/injection, schedule: Q04DX003 (ip), vehicle: Klucel (hydroxypropylcellulose) (HPC)) was 535 % of control, the T/C (dose: 40.5 mg/kg/injection, schedule: Q04DX003 (ip), vehicle: saline) was 300 % of control and the T/C (dose: 60.0 mg/kg/injection, schedule: Q04DX003 (ip), vehicle: saline) was 202 % of control.
In the case of `CSCC(NC(=O)OCc1ccccc1)C(=O)O` (configuration not stated), the T/C [4] is reported as 95 % of control, the T/C [6] is reported as 109 % of control and the T/C [8] is reported as 100 % of control.
In the case of `COc1ccc2c(c1)C1(C)CCN(C)CC(C1)C2O` (configuration not stated), the T/C (dose: 50.0 mg/kg/injection, schedule: Q01DX009 (ip), vehicle: saline) is reported as 96 % of control, the T/C [9] is reported as 89 % of control and the T/C [10] is reported as 92 % of control.
